{"source": "BindingDB's records for doi:10.1021/jm801306g", "about": "(University of Alberta, 2009)", "key": {"Trypanothione reductase [1]": {"biological_target": "Trypanothione reductase (Trypanosoma cruzi, UniProt P28593)", "sequence (P28593 whole entry)": "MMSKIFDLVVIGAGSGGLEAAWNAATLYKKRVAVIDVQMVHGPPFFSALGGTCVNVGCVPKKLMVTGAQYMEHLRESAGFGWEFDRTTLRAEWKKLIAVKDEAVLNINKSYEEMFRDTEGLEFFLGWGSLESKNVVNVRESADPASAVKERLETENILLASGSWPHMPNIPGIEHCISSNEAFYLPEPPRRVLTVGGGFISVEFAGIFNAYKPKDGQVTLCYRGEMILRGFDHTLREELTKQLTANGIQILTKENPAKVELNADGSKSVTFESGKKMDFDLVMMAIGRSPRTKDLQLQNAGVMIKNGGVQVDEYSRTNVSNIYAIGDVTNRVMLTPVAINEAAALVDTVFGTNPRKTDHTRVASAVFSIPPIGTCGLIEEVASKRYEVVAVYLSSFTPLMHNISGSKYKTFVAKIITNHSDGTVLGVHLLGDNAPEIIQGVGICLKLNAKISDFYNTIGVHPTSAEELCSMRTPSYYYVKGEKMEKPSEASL", "experiment": "TryR Enzyme Inhibition Assay", "settings": "pH 7.5; 22 °C", "method": "(§1) Inhibition of TryR was carried out in 96-well plates using a Biotek Precision 2000 automated liquid handler. Reaction was initiated by addition of NADPH to the assay mixtures contained TryR , trypanothione disulfide substrate, and inhibitor (100 uM to 10 nM in 3-fold serial dilutions). […] Raw data was processed using Microsoft Excel. Grafit 5.0 (Erithacus software) was used to fit the data to a three-parameter equation to determine IC50 values. IC50 determinations were carried out in triplicate for each compound and the mean weighted to standard error calculated."}, "Trypanothione reductase [2]": {"biological_target": "Trypanothione reductase (Trypanosoma brucei brucei, UniProt P39051)", "sequence (P39051 whole entry)": "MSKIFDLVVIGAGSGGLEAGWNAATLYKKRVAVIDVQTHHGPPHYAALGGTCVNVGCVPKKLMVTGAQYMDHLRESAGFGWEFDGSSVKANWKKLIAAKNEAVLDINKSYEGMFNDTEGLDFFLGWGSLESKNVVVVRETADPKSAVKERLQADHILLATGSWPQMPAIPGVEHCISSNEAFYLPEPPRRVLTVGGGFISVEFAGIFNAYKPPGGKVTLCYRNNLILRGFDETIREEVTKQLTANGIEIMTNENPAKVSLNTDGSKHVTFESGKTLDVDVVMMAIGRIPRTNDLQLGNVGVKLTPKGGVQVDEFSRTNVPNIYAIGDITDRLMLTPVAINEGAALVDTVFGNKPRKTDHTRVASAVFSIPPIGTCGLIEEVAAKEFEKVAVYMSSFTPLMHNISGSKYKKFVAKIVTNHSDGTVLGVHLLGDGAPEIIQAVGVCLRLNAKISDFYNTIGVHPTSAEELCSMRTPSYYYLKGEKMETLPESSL", "experiment": "TryR Enzyme Inhibition Assay", "method": "as §1"}}, "note": "pIC50: −log10 of the molar value.", "data": [{"smiles": "C[N+]1(Cc2ccccc2)CCC(NC=C2C(=O)NC(=O)N(C3CCCCC3)C2=O)CC1", "note": "(configuration not stated) [1-benzyl-4-[(E)-[(1-cyclohexyl-2,4,6-trioxo-1,3-diazinan-5-yl)methylidene]amino]-1-methylpiperidin-1-ium]", "values": [{"measurement": "pIC50", "setting": "Trypanothione reductase [1]", "result": 4.34}, {"measurement": "pIC50", "setting": "Trypanothione reductase [2]", "result": "< 4.00"}]}]}
